US20070042507A1, “Composite nanoparticles” (priority 2003, published 2007)
Where “and” joins values, the source holds several entries; their conditions need not be identical. Equal entries are not always repeated. Where two headings read alike, the source gives them in different places.

Legend:
physchem [1] = assay: physchem
physchem [2] = assay: physchem; remark: listed apart in the source
[3] = n-octanol/water logD by prior art shake-flask method
[4] = cited from earlier work; for LogD value from literature: n-octanol/water; for logD, Literature Value: pH = 7.4, AstraZeneca in-house data
[5] = n-octanol/water logD with stock solution of n-octanol-charged nanoparticles (SC-CO2 delivery, example 10); conditions: pH 7.4
Procedure: 30 μL n-octanol was then added into the holder 6 by the use of a micro-pipettor. The autoclave vessel and the sample holder (30 ml in total volume) were charged and flushed with CO2 by opening and closing the valves between the two compartments and external outlets for a few times before the vessels were brought up to the desired pressure (150 bar). The temperature of the autoclave and sample holder was maintained at 40° C., to allow the dispersion of the small quantity of n-octanol into the porous particles. After 2 hours, the high pressure of the system was released to atmosphere very slowly.
An appropriate amount of n-octanol was added to provide a thin n-octanol layer covering the water phase (density of n-octanol is lower than water). The funnel was shaken for 5 to 10 minutes to allow mixing of the n-octanol with water. The funnel was then covered by aluminium foil to protect the solvent mixture from light degradation and evaporation. The funnel was placed in an upright position for 3 days to allow separation of the two phases. The n-octanol phase saturated with water was then collected.
The particles containing nanocomposite were dispersed into 5 mL of this saturated buffer solution to obtain a homogeneous stock-solution with a concentration of 0.0038 mL n-octanol per mL of solution. Partition coefficient measurements were carried out as described below, using such a stock solution prepared in the same way.
After shaking the mixed system for half an hour, the magnetic nanocomposites were precipitated in a few minutes by an external magnet placed near the bottom of the reactor-tube. UV-visible spectrophotometry was used to determine the absorption of analyte at the aqueous phase both before and after partitioning.
For the partition coefficient determination, stock solutions were prepared with a suitable n-octanol/nanoparticle ratio. […]
UV-visible spectrometry was used to quantitatively determine the drug concentration in aqueous phase before and after partitioning. […]

[6] = n-octanol/water, pH 7.4, LogD value measured (Prior art method) (pH = 7.4), single measurements, water:n-octanol 100:1
[7] = n-octanol/water, pH 7.4, Mean logD value measured (Prior art method) (ph = 7.4), mean of five, water:n-octanol 100:1
[8] = pH 7.4, LogD value measured by present invention (pH = 7.4), single measurements, water:n-octanol 100:1
[9] = pH 7.4, Mean logD value measured by present invention (pH = 7.4), mean of five, water:n-octanol 100:1
[10] = single measurements, water:n-octanol 100:1
[11] = pH 7.4, logD, Magnetic nano-composite method, water/n-octanol 100, average of at least five, confidence level 95%
[12] = pH 7.4, LogD value measured (Prior art method) (pH = 7.4), single measurements, water:n-octanol 100:1
[13] = pH 7.4, Mean logD value measured (Prior art method) (ph = 7.4), mean of five, water:n-octanol 100:1
[14] = n-octanol/water, pH 7.4, logD, Shake-Flask Method, water/n-octanol 100, average of at least five, confidence level 95%

logD [3, 6]	logD [3, 7]	logD [8]	LogD value measured (Prior art method) (pH = 7.4) [3, 10]	logD [11]	logD [5]	logD [3, 14]	SMILES	logD (physchem [1]; pH 7.4, LogD value measured (Prior art method) (pH = 7.4))	logD (physchem [1]; pH 7.4, logD, Shake-Flask Method)	logD (physchem [2]; pH 7.4, LogD value measured by present invention (pH = 7.4))	logD (physchem [2]; pH 7.4, logD, Magnetic nano-composite method)	logD [9]	LogD value measured by present invention (pH = 7.4) (single measurements, water:n-octanol 100:1, listed as 4-Nitroansiole)	LogD value from literature [4]	logD, Literature Value [4]	logD [3, 12]	logD [3, 13]	logD ([3]; pH 7.4, logD, Shake-Flask Method, water/n-octanol 100, average of at least five, confidence level 95%)	LogD value measured by present invention (pH = 7.4) [10]
1.25	–	1.27	1.264 and 1.244 and 1.256	1.27 ± 0.038	–	–	O=[N+]([O-])c1ccc(CO)cc1 [4-Nitrobenzyl alcohol]	–	–	–	–	1.27 ± 0.0381	–	1.260	1.260	–	–	–	–
–	–	0.0639	–	–	–	–	NC(=O)c1ccccc1 [Benzamide]	–	–	–	–	–	–	–	–	–	–	–	–
3.08	3.076 ± 0.0047	3.14	3.074 and 3.083	3.164 ± 0.011	3.17 ± 0.448	3.076 ± 0.005	CN(C)CCCN1c2ccccc2Sc2ccc(Cl)cc21 [Chlorpromazine]	–	–	–	–	3.164 ± 0.0111	–	3.200	3.200	–	–	–	3.179 and 3.186 and 3.124
2.12	2.116 ± 0.0039	2.19	2.115 and 2.113 and 2.121 and 2.114	2.186 ± 0.004	2.08 ± 0.073	2.116 ± 0.004	c1ccc2ncccc2c1 [Quinoline]	–	–	–	–	2.186 ± 0.0044	–	2.020	2.020	–	–	–	–

SMILES	logD [3, 6]	logD [3, 7]	logD [8]	LogD value measured (Prior art method) (pH = 7.4) [3, 10]	logD [11]	logD [5]	logD [3, 14]	logD (physchem [1]; pH 7.4, LogD value measured (Prior art method) (pH = 7.4))	logD (physchem [1]; pH 7.4, logD, Shake-Flask Method)	logD (physchem [2]; pH 7.4, LogD value measured by present invention (pH = 7.4))	logD (physchem [2]; pH 7.4, logD, Magnetic nano-composite method)	logD [9]	LogD value measured by present invention (pH = 7.4) (single measurements, water:n-octanol 100:1, listed as 4-Nitroansiole)	LogD value from literature [4]	logD, Literature Value [4]	logD [3, 12]	logD [3, 13]	logD ([3]; pH 7.4, logD, Shake-Flask Method, water/n-octanol 100, average of at least five, confidence level 95%)	LogD value measured by present invention (pH = 7.4) [10]
COc1ccc([N+](=O)[O-])cc1 [4-Nitroanisole]	2.01	2.01 ± 0.0077	2.01	–	–	–	–	2.02	2.01 ± 0.008	2.01	2.013 ± 0.012	2.013 ± 0.012	2.023 and 2.002	–	–	–	–	–	–
O=[N+]([O-])c1ccc(O)cc1 [4-Nitrophenol]	–	–	1.81	1.779 and 1.811 and 1.780	1.49 ± 0.021	1.45 ± 0.026	–	–	–	–	–	1.807 ± 0.0052	–	1.480	1.480	1.77	1.78 ± 0.019	1.486 ± 0.009	–
Nc1ccccc1 [Aniline]	–	–	0.963	0.945 and 0.929 and 0.926 and 0.932	–	–	–	–	–	–	–	0.973 ± 0.0303	–	0.900	–	0.936	0.934 ± 0.0094	–	0.990 and 0.935 and 0.989
